From patent publication US11266739B2, “Methods and compositions for adoptive cell therapy” (Juno Therapeutics, Inc., priority 2014, dated 2022)
Changes are numbered by the printed parent chain. Names may count otherwise. Blank lines part the entries; values can stand above or below the molecule they belong to.

Columns and labels:
HLA-A*11:01 = HLA-A*11:01 (Homo sapiens, UniProt P04439, A114D/D185E/E176A/F33Y/L180Q/S129P/T187R); experiment: REVEAL Epitope Discovery System in vitro MHC-peptide binding assay, HLA-A*11:01; settings: binding normalized to positive control peptide set at 100%, score >50 considered good or high affinity binding
Procedure: (§1) Actual binding affinities for certain HLA class I alleles (A*02:01, A*03:01, A*11:01, and B*08:01) were assessed in vitro for exemplary overlapping 9 amino acid peptide sequences within a portion of the 26 amino acid junction region spanning the CD28 and 4-1BB junction. Specifically, assessment was of a series of overlapping 9-mer peptides derived from the sequence […] (set forth in SEQ ID NO: 7), which contains a portion of the CD28 transmembrane domain and 4-1BB costimulatory domain spanning the junction between the domains (bond joining the two amino acids noted in underline). In addition, a series of overlapping 9-mer peptides of each of a number of different variants of this portion also were assessed, each variant containing a mutation or mutations in this region as described in Example 2.
(§2) The various 9-mer overlapping peptides were synthesized and their purity tested by MALDI-TOF Mass Spectrometry. The synthetic peptides were then incubated with recombinant MHC molecules to assess binding properties using the REVEAL Epitope Discovery System, which is a high-throughput binding assay that measures the degree to which each peptide is able to stabilize a ternary MHC-peptide complex (ProImmune, Oxford, United Kingdom). Each peptide was separately tested for this ability with respect to each of the HLA class I alleles, normalized to the degree observed for a positive control (known T cell epitope for the relevant allele). The results are reported as a score, in which the binding was normalized to the positive control peptide set at 100%.

HLA-B*08:01 = HLA-B*08:01 (Homo sapiens, UniProt P01889, A93T/A95T/D138N/E176V/E187T/K202T/Q94N/R180D/S35A/V36M/Y33D/Y91F); experiment: REVEAL Epitope Discovery System in vitro MHC-peptide binding assay, HLA-B*08:01; settings: binding normalized to positive control peptide set at 100%, score >50 considered good or high affinity binding
Procedure: as §1, §2

[1] = tested on: HLA class I alleles (A*02:01, A*03:01, A*11:01, and B*08:01); experiment: Comparison of in silico and in vitro binding of variant junction peptides to HLA class I alleles (summary); set-up: species or system human; settings: without higher binding affinity to another HLA allele or for another peptide
Procedure: as §1, §2
The results were compared to predicted binding (IC50) values obtained for binding of the same peptide:MHC complex, using the in silico prediction methods as described in Example 2. Since the maximum IC50 value predicted was about 50,000, the IC50 values were log transformed, subtracted from LOG(50000) and divided by LOG(50000) to obtain a normalized in silico score ((Log(50000)−log IC50)/Log(50000)). […]

- In Vitro Score (A*11:01) (HLA-A*11:01): 0.90
- In Vitro Score (B*08:01) (HLA-B*08:01): 0.20
Molecule: FIIFWVHRG [junction 9-mer, peptide 3, mutation K29H]

- In Vitro Score (A*11:01) (HLA-A*11:01): 34.90
- In Vitro Score (B*08:01) (HLA-B*08:01): 0.00
Molecule: IFWVARGRK [junction 9-mer, peptide 5, mutation K29A]

- In Vitro Score (A*11:01) (HLA-A*11:01): 54.50
- In Vitro Score (B*08:01) (HLA-B*08:01): 0.00
Molecule: IIFWVKRGR

- In Vitro Score (A*11:01) (HLA-A*11:01): 22.60
- In Vitro Score (B*08:01) (HLA-B*08:01): 0.90
Molecule: IIFWVKRGA [junction 9-mer, peptide 4, mutation R32A]

- In Vitro Score (A*11:01) (HLA-A*11:01): 32.40
- In Vitro Score (B*08:01) (HLA-B*08:01): 1.70
Molecule: IIFWVKRGL [junction 9-mer, peptide 4, mutation R32L]

- In Vitro Score (A*11:01) (HLA-A*11:01): 100.00
- In Vitro Score (B*08:01) (HLA-B*08:01): 0.40
Molecule: IIFWVKRGS [junction 9-mer, peptide 4, mutation R32S]

- In Vitro Score (A*11:01) (HLA-A*11:01): 77.50
- In Vitro Score (B*08:01) (HLA-B*08:01): 0.20
Molecule: IIFWVHRGR [junction 9-mer, peptide 4, mutation K29H]

- In Vitro Score (A*11:01) (HLA-A*11:01): 69.70
- In Vitro Score (B*08:01) (HLA-B*08:01): 2.20
Molecule: IFWVKRGAK [junction 9-mer, peptide 5, mutation R32A]

- In Vitro Score (A*11:01) (HLA-A*11:01): 72.80
- In Vitro Score (B*08:01) (HLA-B*08:01): 0.10
Molecule: IIFWVQRGR [junction 9-mer, peptide 4, mutation K29Q]

- In Vitro Score (A*11:01) (HLA-A*11:01): 2.80
- In Vitro Score (B*08:01) (HLA-B*08:01): 47.60
Molecule: WVKRGHKKL [junction 9-mer, peptide 7, mutation R32H]

- In Vitro Score (A*11:01) (HLA-A*11:01): 30.90
- In Vitro Score (B*08:01) (HLA-B*08:01): 3.20
Molecule: IFWVKRGHK [junction 9-mer, peptide 5, mutation R32H]

- In Vitro Score (A*11:01) (HLA-A*11:01): 45.90
- In Vitro Score (B*08:01) (HLA-B*08:01): 0.10
Molecule: IFWVKRGNK [junction 9-mer, peptide 5, mutation R32N]

- In Vitro Score (A*11:01) (HLA-A*11:01): 42.10
- In Vitro Score (B*08:01) (HLA-B*08:01): 0.90
Molecule: IIFWVKRGN [junction 9-mer, peptide 4, mutation R32N]

- In Vitro Score (A*11:01) (HLA-A*11:01): 35.20
- In Vitro Score (B*08:01) (HLA-B*08:01): 0.40
Molecule: IIFWVLRGR [junction 9-mer, peptide 4, mutation K29L]

- In Vitro Score (A*11:01) (HLA-A*11:01): 4.60
- In Vitro Score (B*08:01) (HLA-B*08:01): 34.10
Molecule: WVKRGAKKL [junction 9-mer, peptide 7, mutation R32A]

- In Vitro Score (A*11:01) (HLA-A*11:01): 8.90
Molecule: FWVARGRKK [junction 9-mer, peptide 6, mutation K29A]

- In Vitro Score (A*11:01) (HLA-A*11:01): 68.90
- In Vitro Score (B*08:01) (HLA-B*08:01): 0.00
Molecule: IIFWVSRGR [junction 9-mer, peptide 4, mutation K29S]

- In Vitro Score (A*11:01) (HLA-A*11:01): 54.00
- In Vitro Score (B*08:01) (HLA-B*08:01): 0.30
Molecule: AFIIFWVSR [junction 9-mer, peptide 2, mutation K29S]

- In Vitro Score (A*11:01) (HLA-A*11:01): 61.30
- In Vitro Score (B*08:01) (HLA-B*08:01): 0.20
Molecule: IFWVQRGAK [junction 9-mer, peptide 5, mutation K29Q/R32A]

- In Vitro Score (A*11:01) (HLA-A*11:01): 34.90
- In Vitro Score (B*08:01) (HLA-B*08:01): 0.30
Molecule: AFIIFWVHR [junction 9-mer, peptide 2, mutation K29H]

- In Vitro Score (A*11:01) (HLA-A*11:01): 109.20
- In Vitro Score (B*08:01) (HLA-B*08:01): 0.30
Molecule: VAFIIFWVK

- In Vitro Score (A*11:01) (HLA-A*11:01): 34.60
- In Vitro Score (B*08:01) (HLA-B*08:01): 0.10
Molecule: VAFIIFWVR [junction 9-mer, peptide 1, mutation K29R]

- In Vitro Score (A*11:01) (HLA-A*11:01): 61.10
- In Vitro Score (B*08:01) (HLA-B*08:01): 58.30
Molecule: IFWVKRGLK [junction 9-mer, peptide 5, mutation R32L]

- In Vitro Score (A*11:01) (HLA-A*11:01): 128.50
- In Vitro Score (B*08:01) (HLA-B*08:01): 0.00
Molecule: IFWVQRGRK [junction 9-mer, peptide 5, mutation K29Q]

- In Vitro Score (A*11:01) (HLA-A*11:01): 51.80
- In Vitro Score (B*08:01) (HLA-B*08:01): 0.20
Molecule: AFIIFWVAR [junction 9-mer, peptide 2, mutation K29A]

- In Vitro Score (A*11:01) (HLA-A*11:01): 56.50
- In Vitro Score (B*08:01) (HLA-B*08:01): 0.20
Molecule: IIFWVQRGA [junction 9-mer, peptide 4, mutation K29Q/R32A]

- In Vitro Score (A*11:01) (HLA-A*11:01): 39.20
- In Vitro Score (B*08:01) (HLA-B*08:01): 0.00
Molecule: IFWVSRGRK [junction 9-mer, peptide 5, mutation K29S]

- In Vitro Score (A*11:01) (HLA-A*11:01): 12.80
- In Vitro Score (B*08:01) (HLA-B*08:01): 45.10
Molecule: WVQRGRKKL [junction 9-mer, peptide 7, mutation K29Q]

- In Vitro Score (A*11:01) (HLA-A*11:01): 70.60
- In Vitro Score (B*08:01) (HLA-B*08:01): 0.30
Molecule: IIFWVARGR [junction 9-mer, peptide 4, mutation K29A]

- In Vitro Score (A*11:01) (HLA-A*11:01): 36.60
- In Vitro Score (B*08:01) (HLA-B*08:01): 0.10
Molecule: IFWVHRGRK [junction 9-mer, peptide 5, mutation K29H]

- In Vitro Score (A*11:01) (HLA-A*11:01): 67.50
- In Vitro Score (B*08:01) (HLA-B*08:01): 0.10
Molecule: IFWVQRGNK [junction 9-mer, peptide 5, mutation K29Q/R32N]

- In Vitro Score (A*11:01) (HLA-A*11:01): 13.80
- In Vitro Score (B*08:01) (HLA-B*08:01): 32.40
Molecule: WVARGRKKL [junction 9-mer, peptide 7, mutation K29A]

- In Vitro Score (A*11:01) (HLA-A*11:01): 10.70
- In Vitro Score (B*08:01) (HLA-B*08:01): 32.00
Molecule: WVQRGNKKL [junction 9-mer, peptide 7, mutation K29Q/R32N]

- In Vitro Score (A*11:01) (HLA-A*11:01): 47.90
- In Vitro Score (B*08:01) (HLA-B*08:01): 1.20
Molecule: IFWVKRGSK [junction 9-mer, peptide 5, mutation R32S]

- In Vitro Score (A*11:01) (HLA-A*11:01): 25.10
- In Vitro Score (B*08:01) (HLA-B*08:01): 0.10
Molecule: VAFIIFWVS [junction 9-mer, peptide 1, mutation K29S]

- In Vitro Score (A*11:01) (HLA-A*11:01): 11.80
- In Vitro Score (B*08:01) (HLA-B*08:01): 56.10
Molecule: WVKRGSKKL [junction 9-mer, peptide 7, mutation R32S]

- In Vitro Score (A*11:01) (HLA-A*11:01): 4.10
- In Vitro Score (B*08:01) (HLA-B*08:01): 65.90
Molecule: WVKRGNKKL [junction 9-mer, peptide 7, mutation R32N]

- predicted or actual binding affinity or score for at least one HLA allele and/or at least one peptide [1]: reduced
B1: R31H: variant CAR junction region, replacement numbered per SEQ ID NO:5 (protein)
chain: FWVLVVVGGVLACYSLLVTVAFIIFWVKRGHKKLLYIFKQPFMRPVQTTQEEDGCSCRFPEEEEGGCEL
modifications: CD28-4-1BB

- predicted or actual binding affinity or score for at least one HLA allele and/or at least one peptide [1]: reduced
B2: L34A: variant CAR junction region, replacement numbered per SEQ ID NO:5 (protein)
chain: B1 chain with H31R, L34A
modifications: CD28-4-1BB

- predicted or actual binding affinity or score for at least one HLA allele and/or at least one peptide [1]: reduced
B3: L34S: variant CAR junction region, replacement numbered per SEQ ID NO:5 (protein)
chain: B1 chain with H31R, L34S
modifications: CD28-4-1BB
